This is an account of results in patent US9394284B2, “Compounds act at multiple prostaglandin receptors giving a general anti-inflammatory response” (Allergan, Inc., priority 2010, dated 2016).

Holding throughout (type): cell-based
Assay [1] deals with T1, human prostanoid EP2 receptor (Homo sapiens, UniProt P43116).
T1 construct: expressed in transfected cells
Put plainly: FLIPR Ca2+ signaling antagonist assay, EP2 receptor stable cell line. As to conditions: HEK-293 EBNA stable cell line; standard agonist PGE2; NA = inactive (no antagonism or Kb 10,000 nM); PAg, Ag not defined. The protocol: The above compounds were tested for PG antagonist activity as follows using human recombinant prostanoid receptor (DP1, EP1-4, FP, IP and TP) stable cell lines:
In order to measure the response of Gs and Gi coupled prostanoid receptors as a Ca^2+ signal, chimeric G protein cDNAs were used. Stable cell lines over-expressing human prostanoid DP1, EP1-4, FP, IP, and TP receptors were established as follows:
Briefly, human prostanoid DP1, EP2, and EP4 receptor cDNAs were co-transfected with chimeric Gqs cDNA containing a haemagglutanin (HA) epitope; human prostanoid EP3 receptors were co-transfected with chimeric Gqi-HA; human EP1, FP, IP, and TP receptor cDNAs were expressed with no exogenous G-proteins. Gqs and Gqi chimeric cDNAs (Molecular Devices, Sunnyvale, Calif., U.S.A.), as well as cDNAs of prostanoid receptors, were cloned into a pCEP4 vector with a hygromycin B selection marker. Transfection into HEK-293 EBNA (Epstein-Barr virus nuclear antigen) cells was achieved by the FuGENE 6 transfection Reagent (Roche Applied Science, Indianapolis, Ind., USA). Stable transfectants were selected according to hygromycin resistance. Because Gqs and Gqi contained an HA epitope, G-protein expression was detected by Western blotting analysis using anti-mouse HA monoclonal antibody and horseradish peroxidase (HRP)-conjugated secondary antibody, while functional expression of prostanoid receptors was detected by FLIPR screening (Matias et al., 2004). These stable cell lines were validated using previously published antagonists at 10 μM against serial dilutions of standard agonists by FLIPR functional assays for Ca^2+ Signaling (as described below).
Ca^2+ signaling studies were performed using a FLIPR TETRA system (Molecular Devices, Sunnyvale, Calif., USA) in the 384-format. This is a high-throughput instrument for cell-based assays to monitor Ca^2+ signaling associated with GPCRs and ion channels. Cells were seeded at a density of 5×10^4 cells/well in BioCoat poly-D-lysine coated, black wall, clear bottom 384-well plates (BD Biosciences, Franklin lakes, NJ, USA) and allowed to attach overnight in an incubator at 37° C. The cells were then washed twice with HBSS-HEPES buffer (Hanks' balanced salt solution without bicarbonate and phenol red, 20 mM HEPES, pH 7.4) using an ELx405 Select CW Microplate Washer (BioTek, Winooski, Vt., USA). After 60 min of dye-loading in the dark using the Ca^2+-sensitive dye Fluo-4AM (Invitrogen, Carlsbad, Calif., USA), at a final concentration of 2×10^−6M, the plates were washed 4 times with HBSS-HEPES buffer to remove excess dye and leaving 50 μl of buffer in each well. The plates were then placed in the FLIPR TETRA instrument and allowed to equilibrate at 37° C. AGN-211377 was added in a 25 μl volume to each well to give final concentrations of 0.1 μM, 0.3 μM, 1 μM, 3 μM, 10 μM, and 30 μM; or 0.067 μM, 0.1 μM, 0.2 μM, 0.3 μM, 0.67 μM, and 1 μM for cells over-expressing TP receptors. After 4.5 minutes, a 7-point serial dilution of the standard agonist for the corresponding receptor, in a 25 μl volume was injected at the final concentrations from 10^−11M to 10^−5M in 10-fold serial dilution increments for cells expressing human recombinant DP1, EP1, EP2, EP3, EP4, FP, and IP receptors. The dose range for the standard agonist for human recombinant TP receptors was from 10^−12 M to 10^−6 M. HBSS-HEPES buffer was used as the negative control for the standard agonists. Cells were excited with LED (light emitting diode) excitation at 470-495 nm and emission was measured through an emission filter at 515-575 nm. Assay plates were read for 3.5 minutes using the FLIPR^TETRA. The peak increase in fluorescence intensity was recorded for each well. On each plate, negative controls, dose response of positive controls, and co-treatments of antagonist-agonist for each dose were in triplicates.
Standard agonists were as follows: DP=BW 245C, EP1-EP4=PGE2, FP=17-phenyl-PGF2α, IP=Cicaprost, and TP=U-46619. […]

Assay [2] addresses T2, human prostanoid DP1 receptor (Homo sapiens, UniProt Q13258).
T2 construct: expressed in transfected cells
T2 sequence (Q13258 1-359): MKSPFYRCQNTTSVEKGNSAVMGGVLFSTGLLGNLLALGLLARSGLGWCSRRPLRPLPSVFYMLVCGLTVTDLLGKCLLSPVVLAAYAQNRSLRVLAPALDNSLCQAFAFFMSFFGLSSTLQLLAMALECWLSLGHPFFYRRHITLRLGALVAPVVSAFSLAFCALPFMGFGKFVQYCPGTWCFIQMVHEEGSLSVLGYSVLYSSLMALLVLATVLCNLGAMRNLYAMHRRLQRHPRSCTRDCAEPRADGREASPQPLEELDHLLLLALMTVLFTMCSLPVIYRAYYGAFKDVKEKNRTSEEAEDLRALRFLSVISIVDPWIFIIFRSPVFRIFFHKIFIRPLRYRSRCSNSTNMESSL
Put plainly: FLIPR Ca2+ signaling antagonist assay, DP1 receptor stable cell line. As to conditions: HEK-293 EBNA stable cell line; standard agonist BW 245C; NA = inactive (no antagonism or Kb 10,000 nM); PAg, Ag not defined. An outline of the steps: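 Functional antagonism measured by Ca2+ flux at 37 °C. Agonist ranges were 10^−11 to 10^−5 M, or 10^−12 to 10^−6 M for TP with U-46619; PGE2 for EP1/EP3, BW 245C for DP1. Compound spanned 0.1–30 μM except TP, 0.067–1 μM.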

Assay [3] concerns the target T3, human prostanoid IP receptor (Homo sapiens, UniProt P43119).
T3 construct: expressed in transfected cells
Put plainly: FLIPR Ca2+ signaling antagonist assay, IP receptor stable cell line. As to conditions: HEK-293 EBNA stable cell line; standard agonist Cicaprost; NA = inactive (no antagonism or Kb 10,000 nM); PAg, Ag not defined. An outline of the steps:
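Peak Fluo-4 fluorescence (ex 470–495, em 515–575 nm) was read for 3.5 min on FLIPR after agonist injection and expressed relative to 10^−6 M standard agonist. Cells were HEK-293 EBNA transfectants. Test compound was added 4.5 min beforehand at 0.1–30 μM, or 0.067–1 μM for TP.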

In assay [4] the target is T4, human prostanoid EP1 receptor (Homo sapiens, UniProt P34995).
T4 construct: expressed in transfected cells
T4 sequence (P34995 1-402): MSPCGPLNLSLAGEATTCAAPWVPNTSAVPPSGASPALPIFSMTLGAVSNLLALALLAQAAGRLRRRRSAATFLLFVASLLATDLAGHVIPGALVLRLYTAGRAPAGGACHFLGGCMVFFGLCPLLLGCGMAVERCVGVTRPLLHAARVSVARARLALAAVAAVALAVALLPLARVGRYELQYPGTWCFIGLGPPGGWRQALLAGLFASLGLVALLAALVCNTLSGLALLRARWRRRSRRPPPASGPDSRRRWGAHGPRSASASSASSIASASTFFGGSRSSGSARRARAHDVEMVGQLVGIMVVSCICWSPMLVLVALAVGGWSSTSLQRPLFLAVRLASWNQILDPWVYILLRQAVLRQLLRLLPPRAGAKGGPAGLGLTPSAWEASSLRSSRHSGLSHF
Put plainly: FLIPR Ca2+ signaling antagonist assay, EP1 receptor stable cell line. As to conditions: HEK-293 EBNA stable cell line; standard agonist PGE2; NA = inactive (no antagonism or Kb 10,000 nM); PAg, Ag not defined. An outline of the steps: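 HEK-293 EBNA cells stably expressed the receptor: DP1 with chimeric Gqs, EP3 with Gqi, and EP1 and TP without exogenous G protein. Fluo-4AM-loaded cells were preincubated 4.5 min at 37 °C with antagonist (0.1–30 μM; TP 0.067–1 μM) before agonist serial dilutions. Peak FLIPR fluorescence was normalised to the 10^−6 M agonist control.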

T3 sequence (P43119 whole entry): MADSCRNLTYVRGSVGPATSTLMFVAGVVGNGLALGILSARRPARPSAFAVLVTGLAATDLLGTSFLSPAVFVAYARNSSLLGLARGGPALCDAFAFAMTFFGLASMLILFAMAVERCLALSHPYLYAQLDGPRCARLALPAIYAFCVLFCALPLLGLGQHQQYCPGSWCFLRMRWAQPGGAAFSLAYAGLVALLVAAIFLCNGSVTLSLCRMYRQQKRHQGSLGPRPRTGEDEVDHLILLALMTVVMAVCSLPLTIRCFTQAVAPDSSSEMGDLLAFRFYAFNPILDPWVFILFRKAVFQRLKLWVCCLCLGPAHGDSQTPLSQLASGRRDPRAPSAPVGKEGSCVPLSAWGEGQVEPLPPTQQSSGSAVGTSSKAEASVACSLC
T1 sequence (P43116 whole entry): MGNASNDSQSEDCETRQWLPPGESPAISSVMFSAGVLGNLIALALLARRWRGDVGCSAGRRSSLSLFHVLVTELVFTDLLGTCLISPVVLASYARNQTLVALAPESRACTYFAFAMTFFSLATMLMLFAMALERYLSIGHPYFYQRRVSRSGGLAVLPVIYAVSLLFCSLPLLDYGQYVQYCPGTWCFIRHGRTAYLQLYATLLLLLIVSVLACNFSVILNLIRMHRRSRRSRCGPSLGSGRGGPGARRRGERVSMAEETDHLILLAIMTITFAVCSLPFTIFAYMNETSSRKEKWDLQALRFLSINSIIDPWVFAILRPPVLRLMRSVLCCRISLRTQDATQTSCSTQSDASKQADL

Take `Cc1cc(CCC(=O)O)nn1Cc1cc(OC(F)(F)F)ccc1OCC1CCCC1` [Example 50, 3-[1-(2-Cyclopentylmethoxy-5-trifluoromethoxy-benzyl)-5-methyl-1H-pyrazol-3-yl]-propionic acid]: the Kb in assay [1] was 4.5 µM; in assay [3], 1.5 µM; in assay [4], 0.035 µM. The “DP1 (FLIPR) Kb” value in assay [2] is recorded as “Ag”.
On the same counts, the results for `Cc1cc(CCC(=O)O)nn1Cc1cc(Cl)ccc1OCCCC(C)C` [Example 40, 3-[1-(5-Chloro-2-(4-methylpentyloxy)benzyl)-5-methyl-1H-pyrazol-3-yl]-propionic acid] are 1.4 µM, 0.72 µM, 0.2 µM and “PAg”.
With `Cc1cc(CCC(=O)NS(=O)(=O)C(F)(F)F)nn1Cc1cc(Cl)ccc1OCC1CCCC1` [Example 43, N-(3-[1-(5-Chloro-2-cyclopentylmethoxybenzyl)-5-methyl-1H-pyrazol-3-yl]-propionyl)C,C,C-trifluoromethanesulfon amide], the “EP2 (FLIPR) Kb” value in assay [1] was “PAg”. Moreover, the “DP1 (FLIPR) Kb” value in assay [2] is listed as “PAg”. The Kb came out at 0.8 µM in assay [3] and 0.006 µM in assay [4].
As for `CCC(CC)COc1ccc(Cl)cc1Cn1nc(CC(C)C(=O)O)cc1C` (racemic) [Example 68, 3-{1-[5-Chloro-2-(2-ethyl-butoxy)-benzyl]-5-methyl-1H-pyrazol-3-yl}-2-methyl-propionic acid], the Kb turned out to be 0.045 µM in assay [1], 0.26 µM in assay [2], 5.7 µM in assay [3] and 0.07 µM in assay [4].
With `Cc1cc(CCC(=O)NS(=O)(=O)c2ccccc2)nn1Cc1cc(Cl)ccc1OCc1ccc(Cl)cc1` [Example 24, N-(3-[1-(5-Chloro-2-(4-chlorobenzyloxy)benzyl)-5-methyl-1H-pyrazol-3-yl]-propionyl)benzenesulfonamide], the Kb in assay [1] was 5.5 µM; in assay [2], 0.8 µM; in assay [3] it was 1 µM; in assay [4], 0.05 µM.
In the case of `Cc1cc(CCC(=O)O)nn1Cc1cc(OC(F)(F)F)ccc1OCc1ccc(Cl)cc1` [Example 51, 3-[1-[2-(4-Chloro-benzyloxy)-5-trifluoromethoxy-benzyl]-5-methyl-1H-pyrazol-3-yl]-propionic acid], the Kb in assay [1] came out at 0.5 µM; in assay [2] it was 0.6 µM; in assay [4], 0.015 µM. The “IP (FLIPR) Kb” value in assay [3] is listed as “PAg”.
For `Cc1cc(CCC(=O)O)nn1Cc1cc(C(F)(F)F)ccc1OCc1ccc(Cl)cc1` [Example 52, 3-[1-[2-(4-Chloro-benzyloxy)-5-trifluoromethyl-benzyl]-5-methyl-1H-pyrazol-3-yl]-propionic acid], the results for the Kb in assay [1], in assay [2] and in assay [4] were 2.2 µM, 0.1 µM and 0.005 µM, respectively. In addition, the “IP (FLIPR) Kb” value in assay [3] is recorded as “PAg”.
As for `Cc1cc(CCC(=O)O)nn1Cc1cc(Cl)ccc1OCC(C)(C)C` [Example 35, 3-[1-(5-Chloro-2-(2,2-dimethylropoxy)benzyl)-5-methyl-1H-pyrazol-3-yl]-propionic acid], the values for the Kb in assay [1], in assay [3] and in assay [4] were 3.2 µM, 3.7 µM and 0.1 µM, respectively. For the same molecule, the “DP1 (FLIPR) Kb” value in assay [2] is given as “PAg”.

The Kb is the affinity of an antagonist, worked out from how it opposes an agonist. Read a low Kb as higher antagonist affinity.
